Experimental data reported in patent US20080207614A1, “QUINAZOLINE DERIVATIVES FOR THE TREATMENT AND PREVENTION OF DIABETES AND OBESITY” (SK CHEMICALS CO., LTD., priority 2004, published 2008).

Test system: C2C12 muscle cells
Test: Analysis of glucose absorption (2-deoxyglucose) in differentiated C2C12 muscle cells
Type: cell-based
Conditions: test materials 10 μM, times relative to control group
Procedure: C2C12 muscle cells were cultured in DMEM (Dulbecco's modified Eagle's medium) containing 10% bovine calf serum. When the cell density increased to about 85 to 90%, the culture medium was replaced with 1% bovine calf serum and cell differentiation was induced for 6 days. Completely differentiated cells were cultured for 3 hours with Krebs-Ringer buffer (KRB) containing 5 mM glucose. The test materials were added at a concentration of 10 μM. 30 minutes later, 0.2 μCi 2-deoxyglucose was added. KRB was removed 20 minutes later and the cells were washed for 3 times with cold PBS. The cells were lysed with 0.5N NaOH and counted using a radioactive counter.

| Structure (SMILES) | Glucose absorption |
| --- | --- |
| c1ccc(-c2nc(NCC3CCCC3)c3ccccc3n2)cc1 [Compound 159, Cyclopentylmethyl-(2-phenylquinazolino-4-yl)-amine] | 2.6 |
| c1ccc(-c2nc(NCCN3CCNCC3)c3ccccc3n2)cc1 [Compound 160, (2-Phenylquinazolino-4-yl)-(2-piperazino-1-ylethyl)-amine] | 2.5 |
| O=[N+]([O-])c1ccc(CONc2nc(-c3ccccc3)nc3ccccc23)cc1 [Compound 161, O-(4-Nitrobenzyl)-N-(2-phenylquinazolino-4-yl)-hydroxylamine] | 1.1 |
| Clc1ccc(Nc2nc(-c3ccccc3)nc3ccccc23)cc1 [Compound 162, (4-Chlorophenyl)-(2-phenylquinazolino-4-yl)-amine] | 1.3 |
| Cc1nc(NCCOCCO)c2ccccc2n1 [Compound 173, 2-[2-(2-Methylquinazolino-4-ylamino)-ethoxy]-ethanol] | 1.3 |
| Cc1nc(NCCO)c2ccccc2n1 [Compound 174, 2-(2-Methylquinazolino-4-ylamino)-ethanol] | 1.2 |
| CC(C)c1nc(NCCOCCO)c2ccccc2n1 [Compound 185, 2-[2-(2-Isopropylquinazolino-4-ylamino)-ethoxy]-ethanol] | 1.4 |
| CC(C)c1nc(NCCO)c2ccccc2n1 [Compound 186, 2-(2-Isopropylquinazolino-4-ylamino)-ethanol] | 1.0 |
| COc1cccc(CNc2nc(C(C)(C)C)nc3ccccc23)c1 [Compound 188, (2-tert-Butylquinazolino-4-yl)-(3-methoxybenzyl)-amine] | 1.0 |
| COc1ccc(CNc2nc(C(C)(C)C)nc3ccccc23)cc1 [Compound 189, (2-tert-Butylquinazolino-4-yl)-(4-methoxybenzyl)-amine] | 1.3 |
| CC(C)(C)c1nc(NCc2cccc(C(F)(F)F)c2)c2ccccc2n1 [Compound 190, (2-tert-Butylquinazolino-4-yl)-(3-trifluoromethylbenzyl)-amine] | 1.2 |
| CC(C)(C)c1nc(NCc2cccc3ccccc23)c2ccccc2n1 [Compound 193, (2-tert-Butylquinazolino-4-yl)-naphthaleno-1-ylmethylamine] | 1.3 |
| CC(C)(C)c1nc(NCc2ccc3c(c2)OCO3)c2ccccc2n1 [Compound 194, Benzo[1,3]dioxol-5-ylmethyl-(2-tert-butylquinazolino-4-yl)-amine] | 1.4 |
| CC(C)(C)c1nc(NCc2cccc(F)c2)c2ccccc2n1 [Compound 195, (2-tert-Butylquinazolino-4-yl)-(3-fluorobenzyl)-amine] | 1.2 |
| CC(C)(C)c1nc(NCCOCCO)c2ccccc2n1 [Compound 197, 2-[2-(2-tert-Butylquinazolino-4-ylamino)-ethoxy]-ethanol] | 1.3 |
| CC(C)(C)c1nc(NCCO)c2ccccc2n1 [Compound 198, 2-(2-tert-Butylquinazolino-4-ylamino)-ethanol] | 1.4 |
| FC(F)(F)c1cccc(CNc2nc(C3CCCCC3)nc3ccccc23)c1 [Compound 202, (2-Cyclohexylquinazolino-4-yl)-(3-trifluoromethylbenzyl)-amine] | 1.4 |
| c1ccc(CCCCNc2nc(C3CCCCC3)nc3ccccc23)cc1 [Compound 204, (2-Cyclohexylquinazolino-4-yl)-(4-phenylbutyl)-amine] | 1.2 |
| c1ccc2c(CNc3nc(C4CCCCC4)nc4ccccc34)cccc2c1 [Compound 205, (2-Cyclohexylquinazolino-4-yl)-naphthaleno-1-ylmethylamine] | 1.3 |
| c1ccc2c(NCc3ccc4c(c3)OCO4)nc(C3CCCCC3)nc2c1 [Compound 206, Benzo[1,3]dioxol-5-ylmethyl-(2-cyclohexylquinazolino-4-yl)-amine] | 1.4 |
| Fc1cccc(CNc2nc(C3CCCCC3)nc3ccccc23)c1 [Compound 207, (2-Cyclohexylquinazolino-4-yl)-(3-fluorobenzyl)-amine] | 2.0 |
| Fc1cccc(CCNc2nc(C3CCCCC3)nc3ccccc23)c1 [Compound 208, (2-Cyclohexylquinazolino-4-yl)-[2-(3-fluorophenyl)-ethyl]-amine] | 2.0 |
| OCCOCCNc1nc(C2CCCCC2)nc2ccccc12 [Compound 209, 2-[2-(2-Cyclohexylquinazolino-4-ylamino)-ethoxy]-ethanol] | 1.1 |
| OCCNc1nc(C2CCCCC2)nc2ccccc12 [Compound 210, 2-(2-Cyclohexylquinazolino-4-ylamino)-ethanol] | 0.9 |
| c1ccc(CNc2nc(Cc3ccccc3)nc3ccccc23)cc1 [Compound 211, Benzyl-(2-benzylquinazolino-4-yl)-amine] | 1.3 |

| Structure (SMILES) | Glucose absorption |
| --- | --- |
| COc1cccc(CNc2nc(Cc3ccccc3)nc3ccccc23)c1 [Compound 212, (2-Benzylquinazolino-4-yl)-(3-methoxybenzyl)-amine] | 2.0 |
| COc1ccc(CNc2nc(Cc3ccccc3)nc3ccccc23)cc1 [Compound 213, (2-Benzylquinazolino-4-yl)-(4-methoxybenzyl)-amine] | 1.4 |
| FC(F)(F)c1cccc(CNc2nc(Cc3ccccc3)nc3ccccc23)c1 [Compound 214, (2-Benzylquinazolino-4-yl)-(3-trifluoromethylbenzyl)-amine] | 2.0 |
| c1ccc(CCNc2nc(Cc3ccccc3)nc3ccccc23)cc1 [Compound 215, (2-Benzylquinazolino-4-yl)-phenethylamine] | 2.2 |
| c1ccc(CCCCNc2nc(Cc3ccccc3)nc3ccccc23)cc1 [Compound 216, (2-Benzylquinazolino-4-yl)-(4-phenylbutyl)-amine] | 2.6 |
| c1ccc(Cc2nc(NCc3cccc4ccccc34)c3ccccc3n2)cc1 [Compound 217, (2-Benzylquinazolino-4-yl)-naphthaleno-1-ylmethylamine] | 1.2 |
| c1ccc(Cc2nc(NCc3ccc4c(c3)OCO4)c3ccccc3n2)cc1 [Compound 218, Benzo[1,3]dioxol-5-ylmethyl-(2-benzylquinazolino-4-yl)-amine] | 2.0 |
| Fc1cccc(CNc2nc(Cc3ccccc3)nc3ccccc23)c1 [Compound 219, (2-Benzylquinazolino-4-yl)-(3-fluorobenzyl)-amine] | 2.3 |
| Fc1cccc(CCNc2nc(Cc3ccccc3)nc3ccccc23)c1 [Compound 220, (2-Benzylquinazolino-4-yl)-[2-(3-fluorophenyl)-ethyl]-amine] | 2.5 |
| OCCOCCNc1nc(Cc2ccccc2)nc2ccccc12 [Compound 221, 2-[2-(2-Benzylquinazolino-4-ylamino)-ethoxy]-ethanol] | 1.5 |
| OCCNc1nc(Cc2ccccc2)nc2ccccc12 [Compound 222, 2-(2-Benzylquinazolino-4-ylamino)-ethanol] | 1.2 |
| c1ccc(CNc2nc(-c3ccccn3)nc3ccccc23)cc1 [Compound 223, Benzyl-(2-pyridino-2-ylquinazolino-4-yl)-amine] | 1.7 |
| COc1cccc(CNc2nc(-c3ccccn3)nc3ccccc23)c1 [Compound 224, (3-Methoxybenzyl)-(2-pyridino-2-ylquinazolino-4-yl)-amine] | 1.1 |
| COc1ccc(CNc2nc(-c3ccccn3)nc3ccccc23)cc1 [Compound 225, (4-Methoxybenzyl)-(2-pyridino-2-ylquinazolino-4-yl)-amine] | 1.3 |
| Fc1cccc(CNc2nc(-c3ccccn3)nc3ccccc23)c1 [Compound 231, (3-Fluorobenzyl)-(2-pyridino-2-ylquinazolino-4-yl)-amine] | 1.2 |
| Fc1cccc(CCNc2nc(-c3ccccn3)nc3ccccc23)c1 [Compound 232, [2-(3-Fluorophenyl)-ethyl]-(2-pyridino-2-ylquinazolino-4-yl)-amine] | 1.2 |
| OCCOCCNc1nc(-c2ccccn2)nc2ccccc12 [Compound 233, 2-[2-(2-Pyridino-2-ylquinazolino-4-ylamino)-ethoxy]-ethanol] | 1.4 |
| OCCNc1nc(-c2ccccn2)nc2ccccc12 [Compound 234, 2-(2-Pyridino-2-ylquinazolino-4-ylamino)-ethanol] | 1.1 |
| c1ccc(CNc2nc(-c3cccnc3)nc3ccccc23)cc1 [Compound 235, Benzyl-(2-pyridino-3-ylquinazolino-4-yl)-amine] | 1.2 |
| COc1cccc(CNc2nc(-c3cccnc3)nc3ccccc23)c1 [Compound 236, (3-Methoxybenzyl)-(2-pyridino-3-ylquinazolino-4-yl)-amine] | 1.2 |
| COc1ccc(CNc2nc(-c3cccnc3)nc3ccccc23)cc1 [Compound 237, (4-Methoxybenzyl)-(2-pyridino-3-ylquinazolino-4-yl)-amine] | 0.9 |
| FC(F)(F)c1cccc(CNc2nc(-c3cccnc3)nc3ccccc23)c1 [Compound 238, (2-Pyridino-3-ylquinazolino-4-yl)-(3-trifluoromethylbenzyl)-amine] | 1.0 |
| c1ccc(CCNc2nc(-c3cccnc3)nc3ccccc23)cc1 [Compound 239, Phenethyl-(2-pyridino-3-ylquinazolino-4-yl)-amine] | 0.5 |
| c1ccc(CCCCNc2nc(-c3cccnc3)nc3ccccc23)cc1 [Compound 240, (4-Phenylbutyl)-(2-pyridino-3-ylquinazolino-4-yl)-amine] | 1.0 |
| c1cncc(-c2nc(NCc3cccc4ccccc34)c3ccccc3n2)c1 [Compound 241, Naphthaleno-1-ylmethyl-(2-pyridino-3-ylquinazolino-4-yl)-amine] | 1.2 |
